Results as given in patent publication US6387882B1, “Vitamin E derivatives” (Senju Pharmaceutical Co., Ltd., priority 1997, dated 2002).

Tests used:
[1] = system: buthionine sulfoximine (BSO)-induced cataract; assay: Effect on BSO-induced cataract in rats; type: in vivo; conditions: newborn SD rats
Method: The present compound was examined for the effect on buthionine sulfoximine (BSO)-induced cataract in rats.
The compound of Example 2 (abbreviated to ETS-GS-Na) 0.1 mmol/10 ml/kg, i.p.
The test was performed according to the method of Maitra et al.
Indrani Maitra, Elena Serbinova et al., α-Lipoic Acid Prevents Buthionine Sulfoximine-induced Cataract Formation in Newborn Rats Free Radical Biology & Medicine, Vol. 18, No. 4, pp.823-829, 1995.
28 to 36-hour old SD rats purchased from SLC Japan (Kabushiki Kaisha) were used for the test.
Cataract was induced by subcutaneously administering 3 mmol/kg of BSO at 8:00 A.M. and 4:00 P.M. for 2 days.
Observation of cataract was performed using a slit lamp microscope after the newborn rats opened their eyes after the BSO administration. The opacity of each of the lenses was assessed and classified into one of the following 0-5 grades.
0: a clear lens without opacity
1: a lens with opacities in part of the equatorial region
2: a lens with opacities along the equatorial region
3: a lens with opacities in part of the cortex
4: a lens with opacities in the whole cortex
5: a lens with opacities advancing up to the central region.
The test compound was intraperitoneally administered 4 and 12 hours after the administration of BSO.

[2] = system: acetaminophen-induced hepatopathy; assay: Effect on acetaminophen-induced hepatopathy in mice; type: in vivo; conditions: male ddy mice
Method: The present compound was examined for the effect on acetaminophen-induced hepatopathy in mice.
The compound of Example 2 (abbreviated to ETS-GS-Na) 0.1 mmol/ 10 ml/kg, i.p.
7-week old male ddy mice purchased from SLC Japan (Kabushiki Kaisha) were used for the test following a 24-hour fasting.
Hepatopathy was induced by oral administration of 250 mg/10 ml/kg acetaminophen (dissolved by warming).
24 hours after the oral administration of acetaminophen, blood were sampled for measurement of GOP and GPT activities, indices of hepatopathy. The mice were kept on fasting for 48 hours until the blood sampling was made.
The test compound was intraperitoneally injected 30 min before the administration of acetaminophen.

[3] = system: rat brain homogenate; assay: Formation of lipid peroxide through the autoxidation of rat brain homogenate (TBA method); type: biochemical; conditions: for Amount of MDA: 37° C. 30 min, mean ± standard deviation (n = 3); for Rate of Suppression: suppression of lipid peroxide formation
Method: The present compound was examined for the effect on the formation of lipid peroxide through the autoxidation of a rat brain homogenate.
Wistars rat (purchased from SLC Japan (Kabushiki Kaisha)) were decapitated without anesthesia and the skull was immediately opened and the brain removed. The brain taken out was washed with ice-cooled, phoshate buffered saline (PBS (50 mM, pH 7.4)), lightly blotted with filter paper and weighed. Four times ice-cooled PBS was added to the brain and homogenized in ice. The homogenate was centrifuged at 1000×g (2700 rpm) for 10 min at 0° C. The supernate thus obtained was used for the test. To 100 μl of the test compound were added 700 μl of PBS and 200 μl of the supernate of the brain homogenate, and incubated at 37° C. for 30 min. A control group and a blank group were incubated with PBS, with the blank group at 0° C. for 30 min. Then, 200 μl of 35% perchloric acid was added to cease the reaction and the mixture was centrifuged at 1300×g (3200 rpm) for 10 min at 0° C. Using the supernate as a sample, the amount of malondialdehyde (MDA) formed was determined by thiobarbituric acid colorimetric method (TBA method).
To 0.11 g (0.5 mmol) of 1,1,3,3-tetraethoxypropane was added methanol to make 50 ml of volume. This solution was diluted 10^3, 3×10^3 and 10^4-folds with methanol and used as the standards (10 μM, 3 μM, 1 μM). Methanol was assigned to 0 μM.
To 1 ml of each of the samples or the standards were added 0.2 ml of 8.1% sodium dodecylsulfate (SDS), 1.5 ml of 20% acetate buffer (pH 3.5) and 0.8% thbiobarbituric acid (TBA) and incubated in a boiling water bath for 60 min. After ice-cooling to cease the reaction, 4 ml of butanol-pyridine (15:1) was added and mixed well. After centrifugation at 1200×g (3000 rpm) for 10 min, the fluorescence intensity of the butanol-pyridine layer was measured at the wavelength of 553 nm with the excitation wavelength of 515 nm.
The rate of suppression of lipid peroxide formation was calculated according to the following equation for each test compound.
Rate of suppression of lipid peroxide formation (%)=[1-(C-A/B-A)]×100
A: Amount (μM) of formed MDA for the blank group
B: Amount (μM) of formed MDA for the control group
C: Amount (μM) of formed MDA for a test compound group

[4] = 0.1 mmol/10 ml/kg i.p. 30 min before acetaminophen 250 mg/kg p.o., blood 24 hours after acetaminophen

| Molecule | suppression of BSO-induced cataract ([1]; 0.1 mmol/10 ml/kg i.p.) | average grade of lens opacity ([1]; BSO 3 mmol/kg s.c., 0.1 mmol/10 ml/kg i.p. 4 and 12 hours after BSO, slit lamp, grades 0-5) | effect on acetaminophen-induced hepatopathy ([2]; 0.1 mmol/10 ml/kg i.p.) | blood GOT activity [2, 4] | blood GPT activity [2, 4] | Amount of MDA ([3]; 3 × 10^−5M) | Rate of Suppression ([3]; 3 × 10^−5M) | Amount of MDA ([3]; 3 × 10^−6M) | Rate of Suppression ([3]; 3 × 10^−6M) | Amount of MDA ([3]; 10^−5M) | Rate of Suppression ([3]; 10^−5M) | Amount of MDA ([3]; 10^−6M) | Rate of Suppression ([3]; 10^−6M) |
| --- | --- | --- | --- | --- | --- | --- | --- | --- | --- | --- | --- | --- | --- |
| Cc1c(C)c2c(c(C)c1OC(=O)C(CC(=O)NCCS(=O)(=O)O)SC[C@H](NC(=O)CC[C@H](N)C(=O)O)C(=O)NCC(=O)O)CCC(C)(CCCC(C)CCCC(C)CCCC(C)C)O2 (stereo partly drawn) [Example 2, S-[2-(N-Carbonylaminoethylsulfonic acid)-1-(α-tocopheryl-6-yl-oxycarbonyl)ethyl]glutathione] | complete suppression | 0 | significant suppressing effect | 336±89 IU/1 | 47±22 IU/1 | – | – | – | – | – | – | – | – |
| Cc1c(C)c2c(c(C)c1OC(=O)C(CC(=O)O)SC[C@H](NC(=O)CC[C@H](N)C(=O)O)C(=O)NCC(=O)O)CCC(C)(CCCC(C)CCCC(C)CCCC(C)C)O2 (stereo partly drawn) [Example 1, S-[2-Carboxy-1-(α-tocopheryl-6-yl-oxycarbonyl)Ethyl]glutathione] | – | – | – | – | – | 0.838 ± 0.056 µM | 93.94 ^*3% | 4.079 ± 0.126 µM | 40.17 ^*3% | 1.338 ± 0.039 µM | 85.64 ^*3% | 5.208 ± 0.083 µM | 21.43 ^*2% |
| S-[2-(N-Carbonylaminoethylsulfonic acid)-1-(α-tocopheryl-6-yl-oxycarbonyl)ethyl]cysteine [Example 5] | – | – | – | – | – | 0.980 ± 0.249 µM | 91.59 ^*3% | 4.890 ± 0.052 µM | 26.71 ^*2% | 4.090 ± 0.348 µM | 39.98 ^*2% | 5.022 ± 0.060 µM | 24.52 ^*2% |
